The text below walks through data of patent US5750534A (priority 1996, dated 1998).

The conditions of data set [1]: Shafer et al., Anesthesiology 1991; cited from earlier work.
For data set [2] the following is noted: cited from earlier work; for dosing interval: Hemstrom et al.
Data set [3] has as its system Sprague-Dawley rats (antinociceptive threshold). The experiment in a line: Rat cold ethanol tail-flick test, pharmacodynamic study of nalbuphine arachidate. The class given is in vivo. The following applies: for analgesic effect (significance): FIGS. 21 and 22.
The subject of data set [4] is humans (analgesia). Description: Estimate of human analgesic duration and dose from rat/human dose ratio. The following applies: 1.56 μM/kg i.m., calculated from rat.
Data set [5] has as its system Sprague-Dawley rats (nociceptive threshold). The class given is in vivo, rat.
The conditions of data set [6]: plasma half time; FIG. 18.
Data set [7] relates to humans. Description: Analgesic effect for human intramuscular injection. The class given is in vivo. The following applies: human i.m.
For data set [8], the system named is patients (analgesia). As to conditions: 10 mg/65 kg (0.154 mg/kg) i.m., 65-kg patient; cited from earlier work.
The nature of data set [9]: Water solubility. Format: physicochemical.
[10] abbreviates: 25 micromole/kg i.m., prodrugs in sesame oil, Table 2 / FIG. 17.
The mark [11] stands for this setting: 25 micromole/kg i.m., Table 2 / FIG. 17.

SMILES strings stand for the structures. “Also recorded” adds a separate entry of the source. Where a name gives a salt, the structure may show the parent alone. Read-outs that look alike come from different tables or passages of the source.

For `CO[C@]12CC[C@@]3(C[C@@H]1[C@](C)(O)C(C)(C)C)[C@H]1Cc4ccc(O)c5c4[C@@]3(CCN1CC1CC1)[C@H]2O5` [buprenorphine], the “dose needed to elicit the same analgesic effect” value (“dose needed” below) in [1] is 0.3 mg.
Turning to `Oc1ccc2c(c1)[C@@]13CCCC[C@@]1(O)[C@@H](C2)N(CC1CCC1)CC3` [butorphanol], in data set [1], the “dose needed” value is listed as 2 mg.
Turning to `CCCCCCCCCC(=O)OC1(c2ccc(Cl)cc2)CCN(CCCC(=O)c2ccc(F)cc2)CC1` [haloperidol decanoate], the dosing interval in [2] is 1-2 times a month.
For the compound `O=C(CCCN1CCC(O)(c2ccc(Cl)cc2)CC1)c1ccc(F)cc1` [haloperidol], the dosing interval in data set [2] was 2-4 times a day.
As to `CN1CC[C@]23c4c5ccc(O)c4O[C@H]2[C@@H](O)C=C[C@H]3[C@H]1C5` [morphine], the “dose needed” value in data set [1] is listed as 10 mg.
Regarding `CCCCCCCCCCCCCCCCCCCC(=O)Oc1ccc2c3c1OC1C(O)CCC4(O)C(C2)N(CC2CCC2)CCC314` (stereo not shown) [nalbuphine arachidate], in [3] (25 μM/kg i.m., rats), the “duration of analgesic effect in words” value is listed as “longer than that of nalbuphine HCl; also recorded: long duration of analgesic effect; also recorded: very long duration of analgesic effect”. Also, the “duration of analgesic effect” value in data set [3] (25 μM/kg i.m., sesame oil suspension, rats) was in the range of 4 to 5 days. The “analgesic effect (significance)” value in data set [3] (25 μM/kg i.m.) is “significant analgesic effects”. Further, the “estimated analgesic duration in humans” value in data set [4] is 4 to 5 days.
Turning to `O=C(Oc1ccc2c3c1OC1C(O)CCC4(O)C(C2)N(CC2CCC2)CCC314)c1ccccc1` (stereo not shown) [nalbuphine benzoate], the “50% analgesic effect (time)” value in data set [5] (setting [10]) was found to be 3.5 days. Besides, the “20% analgesic effect (time)” value in [5] (25 micromole/kg i.m., Table 2) is on record as 4.0 D. For the same compound, the “10% analgesic effect (time)” value in data set [5] (setting [11]) stood at 4.0 D.
As for `CCCCCCCCCC(=O)Oc1ccc2c3c1O[C@H]1[C@@H](O)CC[C@@]4(O)[C@@H](C2)N(CC2CCC2)CC[C@]314` [nalbuphine decanoate], in data set [5] (setting [10]), the “50% analgesic effect (time)” value came out at 6.7 days. For the same compound, the “20% analgesic effect (time)” value in data set [5] (25 micromole/kg i.m., Table 2) amounted to 7.5 D. For the same compound, the “10% analgesic effect (time)” value in data set [5] (setting [11]) is 8.2 D. Further, the “increase of duration over nalbuphine hydrochloride” value in [6] is listed as 30 times.
With `CCCCCCC(=O)Oc1ccc2c3c1OC1C(O)CCC4(O)C(C2)N(CC2CCC2)CCC314` (stereo not shown) [nalbuphine enanthate], the “50% analgesic effect (time)” value in data set [5] (setting [10]) was 3.9 days. For the same compound, in data set [5] (25 micromole/kg i.m., Table 2), the “20% analgesic effect (time)” value is listed as 3.4 D. Also, the “10% analgesic effect (time)” value in data set [5] (setting [11]) worked out at 3.6 D.
Consider `Oc1ccc2c3c1O[C@H]1[C@@H](O)CC[C@@]4(O)[C@@H](C2)N(CC2CCC2)CC[C@]314` [nalbuphine hydrochloride, reference compound], for which, in [5] (rat, in vivo), the “10% analgesic effect (time)” value was determined as 5.0 H; the “10% analgesic effect (time), rat” value is 2.4 h; the “10% analgesic effect (time), text” value was found to be 12 h; the “20% analgesic effect (time)” value is given as 4.4 H. In addition, in data set [5] (rat, in vivo), the “20% analgesic effect (time), rat” value came to 2.1 h; the “50% analgesic effect (time)” value stood at 2.5; the “50% analgesic effect (time), rat” value was found to be 1.1 h. In data set [7], the “10% analgesic effect (time), human” value turned out to be 5.0 h and the “20% analgesic effect (time), human” value is 4.4 h. Besides, in [7] (0.8 nmole/kg as printed), the “50% analgesic effect (time), human” value worked out at 2.5 h. Further, the “analgesic duration (Discussion)” value in data set [3] (25 μM/kg (9.86 mg/kg) i.m., rats) is on record as “about 2 hours”. Moreover, the “duration of analgesic effect” value in data set [3] (25 μM/kg i.m., in 0.9% saline, rats) amounted to 0.17 days. The “analgesic effect (significance)” value in data set [3] (25 μM/kg i.m.) is on record as “significant analgesic effects”. The “analgesic duration, clinical” value in data set [8] is 2 to 3 h.
Consider `CC(C)(C)C(=O)Oc1ccc2c3c1OC1C(O)CCC4(O)C(C2)N(CC2CCC2)CCC314` (stereo not shown) [nalbuphine pivalate], for which the “50% analgesic effect (time)” value in data set [5] (setting [10]) worked out at 3.2 days. Moreover, the “20% analgesic effect (time)” value in [5] (25 micromole/kg i.m., Table 2) worked out at 3.6 D. Also, the “10% analgesic effect (time)” value in data set [5] (setting [11]) worked out at 3.8 D.
With `CCC(=O)Oc1ccc2c3c1OC1C(O)CCC4(O)C(C2)N(CC2CCC2)CCC314` (stereo not shown) [nalbuphine propionate monohydrochloride], the water solubility entry in data set [9] was “water soluble”.
Turning to `CCC(=O)Oc1ccc2c3c1OC1C(O)CCC4(O)C(C2)N(CC2CCC2)CCC314` (stereo not shown) [nalbuphine propionate], the “50% analgesic effect (time)” value in [5] (setting [10]) was 0.417 days. In addition, in [5] (25 micromole/kg i.m., Table 2), the “10% analgesic effect (time)” value worked out at 12 H and the “20% analgesic effect (time)” value is 11 H.
For `Oc1ccc2c3c1O[C@H]1[C@@H](O)CC[C@@]4(O)[C@@H](C2)N(CC2CCC2)CC[C@]314` [nalbuphine], the “amount of released nalbuphine free base (FIG. 15)” value (between 17 and 28 hours, p<0.05) was “less in the preparations with sesame oil than with peanut oil ester and the control”. Besides, the “release times (FIG. 16)” value (nalbuphine base versus hydrochloride) is “significantly increased”.
For the compound `C#C[C@]1(OC(=O)CCCCCC)CC[C@H]2[C@@H]3CCC4=CC(=O)CC[C@@H]4[C@H]3CC[C@@]21C` [northisterone enanthate], the “dosing interval in words” value in [2] (Joshi et al.) is “once every 2 months”.
